Results on 1 molecule are retold here after patent US9994548B2, “Phenyl-substituted nicotinic ligands, and methods of use thereof” (Georgetown University, priority 2011, dated 2018).

The target of one series is T1, α3β4 nAChR (Rattus norvegicus, UniProt P04757+P12392).
T1 construct: expressed in transfected cells; host or cells: HEK 293 (KXα3β4R2)
The series can be described thus: [3H]-epibatidine radioligand competition binding assay. The following applies: competition against [3H]-epibatidine, stably transfected cell membranes; read-out: Ki α3β4. As for the experimental part:
(§1) Stably transfected cell lines, tissue culture conditions, membrane preparation procedures and binding assays were described previously. Briefly, cultured cells at >80% confluence were removed from their flasks (80 cm^2) with a disposable cell scraper and placed in 10 mL of 50 mM Tris.HCl buffer (pH 7.4, 4° C.). The cell suspension was centrifuged at 10,000×g for 5 min and the pellet was collected. The cell pellet was then homogenized in 10 mL buffer with a polytron homogenizer and centrifuged at 36,000 g for 10 min at 4° C. The membrane pellet was resuspended in fresh buffer, and aliquots of the membrane preparation were used for binding assays. The concentration of [^3H]-epibatidine used was ˜500 pM for competition binding assays. […] Bound and free ligands were separated by vacuum filtration through Whatman GF/C filters treated with 0.5% polyethylenimine. The filter-retained radioactivity was measured by liquid scintillation counting. Specific binding was defined as the difference between total binding and nonspecific binding. Data from competition binding assays were analyzed using Prism 5 (GraphPad Software, San Diego, Calif.).
(§2) The in vitro binding affinities of the new ligands were measured for defined receptor subtypes (α2β2, α2β4, α3β2, α3β4, α4β2, α4β4, α6β2, α6β4, and α7) expressed in stably transfected cell lines. [^3H]Epibatidine ([^3H]EB) binds to the agonist recognition site of all of the defined receptor subtypes with high affinities. Rat forebrain homogenates were included to allow comparison between the heterologous and native α4β2 and α7 nAChRs. See FIG. 18 for binding affinity values (Ki) of the ligands at the three major nAChR subtypes (α3β4, […], and α7).
(§3) The binding affinities of all compounds synthesized for the receptor subtypes were examined in binding competition studies against [^3H]-epibatidine.

Another series deals with T2, α4β2 nAChR (Rattus norvegicus, UniProt P09483+P12390).
T2 construct: expressed in transfected cells
The description is as above. The following applies: competition against [3H]-epibatidine, stably transfected cell membranes; read-out: Ki α4β2. On the procedure:
as §1, §2, §3

For a further series, the target named is T3, α7 nAChR (Rattus norvegicus, UniProt Q05941).
T3 construct: expressed in transfected cells
Described as above. The following applies: competition against [3H]-epibatidine. On the procedure: as §1, §2, §3

For a further series, the system named is locomotor activity. Kind of series: Locomotor activity in figure-8 maze. The class given is in vivo, rat. The following applies: 1-hour session. On the procedure:
The studies were conducted in accordance with the regulations outlined by the Duke University Animal Care and Use Committee. The rats housed in approved standard laboratory conditions in a Duke University vivarium facility near the testing room to minimize stress induced by transporting the rats. The rats were kept on a 12:12 reverse day/night cycle, so that they were in their active phase during behavioral testing. The rats in the drug iv self-administration studies were singly housed to prevent them from damaging each other's catheters. The rats in the locomotor activity studies were housed in groups of 2-3. All rats were allowed access to water at all times; the rats in the nicotine-self-administration study were fed daily approximately 30 minutes after completing the sessions while those in the locomotor activity study had continuous access to food.
VMY-2-95 was injected s.c. 10 minutes before testing in a volume of 1 mL/kg of saline. The doses (0, 0.3, 1 and 3 mg/kg) were given in a counterbalanced order with at least two days between successive injections.
Another set of rats (N=12) was tested for acute VMY-2-95 effects on locomotor activity in a figure-8 maze over the course of a 1-hour session (see FIG. 10). […] Numbers of photobeam breaks were recorded for five minutes blocks over the one-hour session. […]

Usually Ki stands for a dissociation constant, usually derived from enzyme kinetics or from competition with a known ligand. Take `C(#Cc1cncc(OC[C@@H]2CCN2)c1)c1ccccc1` [VMY-2-95, (S)-3-(azetidin-2-ylmethoxy)-5-(phenylethynyl)pyridine]: the inhibition constant Ki at α3β4 nAChR amounted to 650 nM; at α4β2 nAChR it was 0.049 nM; at α7 nAChR, 580 nM. In the series on locomotor activity (s.c.), the “dose at peak of increased locomotor activity” value was 1 mg/kg. In the series with locomotor activity (three doses tested (0.3, 1, 3 mg/kg s.c.)), the locomotor activity result is given as “significantly increased”.
